Test system: cell-free RNA (cfRNA)
Experiment: Total cfRNA in plasma after whole blood storage (Qubit RNA HS fluorometric analysis)
Conditions: preservative added singly on ACD-A background, 7 days at room temperature, FIG. 6
From the text: Plasma was isolated and cfRNA extracted using a commercially available kit (Qiagen, QIAamp Circulating Nucleic Acid Isolation Kit). Resultant cfRNA was quantified using the Qubit RNA HS Assay (Invitrogen). Results are the mean with standard deviation from 3 healthy donors.
The working hypothesis for the container (e.g., blood collection tube) that comprises a composition of the disclosure was that cell-free RNA (cfRNA), including messenger RNA, micro-RNA, non-coding RNA, etc., is stable in blood plasma via encapsulation within extracellular vesicles (EVs). Thus, because aspects of the disclosure are directed to stabilizing draw-time concentrations of cfRNA, the goal was to maintain the initial concentration of EVs. […] In the experiments, the functional components of the RNAx BCT are the preservatives imidazolidinyl urea (IDU) and α-cyclodextrin. The experiments were designed to test whether each of the foregoing components acted singly (additive effect) or whether the combination provided an unexpected, more pronounced outcome (synergistic effect).
On the background of the basal anti-coagulant, ACD-A, each of the preservatives (i.e., IDU and α-cyclodextrin) was added singly (at the same concentration utilized in the RNAx BCT) or together. […]

## OC[C@H]1O[C@@H]2O[C@H]3[C@H](O)[C@@H](O)[C@@H](O[C@H]4[C@H](O)[C@@H](O)[C@@H](O[C@H]5[C@H](O)[C@@H](O)[C@@H](O[C@H]6[C@H](O)[C@@H](O)[C@@H](O[C@H]7[C@H](O)[C@@H](O)[C@@H](O[C@H]1[C@H](O)[C@H]2O)O[C@@H]7CO)O[C@@H]6CO)O[C@@H]5CO)O[C@@H]4CO)O[C@@H]3CO [α-cyclodextrin]
  effect on increases in total cfRNA levels (in words): did limit increases in levels of cfRNA

Source: patent publication US12378543B2, “Compositions for hemolysis and coagulation regulation and stabilization of extracellular vesicles” (STRECK LLC, priority 2017, dated 2025)
